Values joined by “and” are separate entries in the source; they are usually repeats but may differ in a detail not shown here. Equal entries are not always repeated. “Also recorded” adds a separate entry of the source.
Experiments:
Aβ 1-40 [1] = target: T1, Aβ 1-40 (Homo sapiens, UniProt P05067); test: Electron microscopy of Aβ aggregates in the presence of inhibitor; assay type: biochemical; set-up: Amyloid-β (Aβ 1-40) was purchased from California Peptides (Lot # SF104); purchased California Peptides Lot # SF104
Method: Electron Microscopy. Electron microscopy was used to follow the changes in size and structural morphology of Aβ aggregates in the presence and absence of inhibitor at 37° C. as a function of time. EM samples were prepared by placing 5 μL of the Aβ solution on a carbon-coated grid and allowing the solution to stand for 2 min before removing excess solution. The grid was then washed once with distilled water and once with 1% uranyl acetate before staining the sample with fresh 1% uranyl acetate for another 2 min. The samples were then studied in a Phillips CM-100 electron microscope. The grids were thoroughly examined to get an overall statistical evaluation of the structures present in the sample. All electron micrographs were taken at 100 kV.

Aβ 1-40 [2] = target: T1, Aβ 1-40; test: Thioflavin T (ThT) fluorescence assay for fibril formation; assay type: biochemical; set-up: Amyloid-β (Aβ 1-40) was purchased from California Peptides (Lot # SF104); purchased California Peptides Lot # SF104
Method: Preparation of Stock Peptide Solutions for Fibrillization Studies. Stock solutions of the inhibitors were prepared by dissolving the compounds at a concentration of 5-7 mM in water or in 1-1.5% DMSO solutions (for compounds with reduced solubility). Amyloid-β (Aβ 1-40) was purchased from California Peptides (Lot # SF104). Aβ 1-40 stock solutions were prepared by dissolving purified and lyophilized peptide in cold double distilled water to yield stock solutions at a concentration of 2 mg/mL. The stock solutions were used within 10-30 minutes of dissolution. Samples for fibril formation assay were prepared by diluting the appropriate amount of Aβ stock with pH 7.4 Tris-HCl buffer (50 mM Tris, 150 mM NaCl) to afford a final peptide concentration of 100 μM. […] Analytical ultracentrifugation, and electron microscopy were periodically used to ensure that we start our experiments with a hydrodynamically defined Aβ monomer, and the absence of any preformed fibrils in solution.
Thioflavin T (ThT) Fluorescence Assay for Fibril Formation. Thioflavin T was purchased from Aldrich (70% purity) and was recrystallized from benzene/ethanol (1:1) to afford yellow crystals (36). Thioflavin T binding assays were performed by addition of 50 μL of 100 μM Aβ solutions, which were incubated at 37° C. in the absence and presence of inhibitors, to 450 μL solution of 10 μM Thioflavin T in phosphate buffer (10 mM phosphate, 100 mM KCl). The solutions were mixed and fluorescence measurements were recorded in Biosystems model spectrofluorimeter at 25° C. using a 1 cm path length quartz cell. An excitation slit width of 4 nm and an emission slit width of 8 nm were employed. The excitation wavelength was set to 450 nm and emission monitored from 460-630 nm. The relative fluorescence at 482 nm was plotted for each sample, and was used as a measure of the amount of fibrillar aggregates in solution.

Aβ 1-40 [3] = target: T1, Aβ 1-40; test: Sedimentation velocity of Aβ quaternary structures in the presence of inhibitors; assay type: biochemical; set-up: Amyloid-β (Aβ 1-40) was purchased from California Peptides (Lot # SF104); purchased California Peptides Lot # SF104; conditions: for Average sedimentation coefficients of two populations of oligomeric species: apomorphine 50 μM
Method: Probing the Mechanism of Amyloid Fibril Formation Inhibition using Sedimentation Velocity Experiments. To probe the mechanism by which apomorphine and its structural analogues inhibit Aβ fibril formation, sedimentation velocity was used to determine the distribution and molecular size of quaternary structures of Aβ in the presence and absence of inhibitors. Aβ samples (100 μM) in a pH 7.4 buffer (50 mM Tris-HCl, 150 mM NaCl) were incubated at 37° C. for 1-10 days in the presence and absence of inhibitors, then transferred to 25° C. for 1-3 hours before the sedimentation experiments were carried out at 20° C. The sedimentation properties of Aβ 1-40 in the absence and presence of inhibitors were obtained from data collected on a temperature controlled Beckman XL-1 using 400-420 μL of peptide solutions and data were recorded at rotor speeds of 3,000-30,000 rpm in continuous mode with a step size of 0.005 cm. The sedimentation velocity absorbance profiles were then analyzed using the time derivative (dc/dt) analysis program, which was provided by J. Philo, to obtain the sedimentation coefficient distribution g(*s) for all the quaternary structures in solution as described previously (37, 38).
Fitting of the g(*s) profiles allows for the determination of the sedimentation coefficient (peak position, with a unit of Svedberg, 1 S=10^−13 s) and the diffusion coefficient (from the peak width, with a unit of Fick, 1 F=[…]). This method has the advantage of allowing for the calculation of the molecular weight of the sedimenting species using equation II since s and D can be obtained from the fitting analysis. [formula]
In the cases where the diffusion coefficient cannot be determined accurately, the molecular weight of a spherical protein can still be estimated by combining the Svedberg equation and Stokes equation for the frictional coefficient to obtain equation III which utilizes the estimated sedimentation coefficient: [formula]
Sedimentation velocity was also used to determine the amount of soluble Aβ and Aβ monomer in solution after sedimentation of Aβ aggregates. […] The percent of monomeric species in solution was calculated using equation IV at 50,000 rpm and after complete sedimentation of Aβ high MW oligomeric species. Sedimentation equilibrium studies of the unsedimented species were carried out to determine whether a monomer, dimer or a mixture was present in solution. % of unsedimented Aβ=1−(Absorbance(290 nm, 3000 rpm)−Absorbance(290 nm, 20,000-30,000 rpm))×100 (IV)

monomeric Aβ = target: T2, monomeric Aβ (Homo sapiens, UniProt P05067); test: Sedimentation equilibrium of unsedimented monomeric species, monitored at 330 nm; assay type: binding
T2 construct: Amyloid-β (Aβ 1-40) was purchased from California Peptides (Lot # SF104); purchased California Peptides Lot # SF104
Method: Sedimentation equilibrium runs were performed on AD (100 μM) samples in the absence and presence of inhibitors (150 μL) at pH 7.4 at a rotor speed of 3,000-20,000 rpm using a double sector cell with charcoal-filled epon centerpieces and sapphire windows. All scans were performed at 280 nm or at 330 nm (for solutions containing apomorphine or apomorphine analogues) with a step size of 0.001 cm and 25 averaged scans. Samples were allowed to equilibrate for 24-30 h, and duplicate scans 3 h apart were overlaid to determine that equilibrium had been reached. The data were analyzed by a nonlinear least squares analysis using the Origin software provided by Beckman.
Analytical ultracentrifugation methods were also employed to probe the mechanism of interaction of these molecules with Aβ. […] To investigate whether apomorphine binds to monomeric Aβ, we carried out a sedimentation equilibrium experiment on the remaining monomeric species by monitoring at 330 nm, where apomorphine is the sole contributor to the absorbance at this wavelength.

Aβ 1-40 [4] = target: T1, Aβ 1-40; test: Visible sedimentable aggregates in Aβ 1-40 fibrillization samples; set-up: Amyloid-β (Aβ 1-40) was purchased from California Peptides (Lot # SF104); purchased California Peptides Lot # SF104; conditions: Aβ 1-40 100 μM, apomorphine 100 μM, 37° C., 1-3 days
Method: Solutions of Aβ 1-40 (50-100 μM) were incubated at 37° C. for 1-3 days in the absence and presence of apomorphine at equimolar concentration.

Aβ 1-40 [5] = target: T1, Aβ 1-40; test: Congo red binding studies; assay type: biochemical; set-up: Amyloid-β (Aβ 1-40) was purchased from California Peptides (Lot # SF104); purchased California Peptides Lot # SF104; conditions: Aβ solutions containing apomorphine, 3 days at 37° C.
Method: Congo Red Binding Studies. […] The concentration of the Congo red stock was determined by measuring the absorbance of a diluted aliquot at 477 nm (ε477 nm=34,722 cm^−1M^−1) (35). Buffered Congo red solutions at the desired concentration were prepared by dilution of an aliquot of the stock solution in 50 mM Tris-HCl, 150 mM NaCl (pH 7.4). Binding studies were carried out by diluting 10 μL of a 100 μM Aβ solutions to 90 μL of 10 μM Congo red buffered solution. The resulting solutions were then vortexed and the UV-Vis spectra (300-700 nm) was collected immediately using a Beckman UV/VIS spectrophotometer in a mini cuvette with a 1 cm pathlength.

T1 sequence (P05067 672-711): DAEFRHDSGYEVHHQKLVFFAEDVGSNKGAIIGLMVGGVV
T2 sequence (P05067 672-711): as above

Compound: CN1CCc2cccc3c2C1Cc1ccc(O)c(O)c1-3 (single isomer, unassigned; (-)) [apomorphine, (−)-10,11-dihydroxyaporphine]
- Species seen by electron microscopy (Aβ 1-40 [1]; Aβ 1-40 100 μM, apomorphine 50 μM): both long unbranched fibrils and short nonfibrillar assemblies were observed
- Nonfibrillar assemblies as share of species in solution (Aβ 1-40 [1]; Aβ 1-40 100 μM, apomorphine 50 μM, 3-6 days at 37° C.): 70-85%
- Species seen by electron microscopy (Aβ 1-40 [1]; Aβ 1-40 100 μM, apomorphine 100 μM): accumulation of predominantly soluble, nonfibrillar assemblies
- Species by sedimentation velocity and EM (Aβ 1-40 [1]; Aβ 1-40 100 μM, apomorphine 200 μM, 37° C., 2-6 days): stabilization of soluble oligomeric species
- Fibril formation at apomorphine concentrations below 50 μM (Aβ 1-40 [1]; Aβ 1-40 100 μM, apomorphine <50 μM, 3-9 days at 37° C.): significant fibrils were formed; also recorded: not effective as an inhibitor
- Protofibril assembly into fibrils when compound is added to pre-incubated Aβ (EM and sedimentation velocity) (Aβ 1-40 [1]; Aβ pre-incubated 18-20 hr at 37° C., then three to nine days with compound): exhibited similar behavior
- Inhibition of Aβ fibril formation by EM, aged or freshly prepared stock solutions (Aβ 1-40 [1]; three to four days at 37° C.): effective inhibition of Aβ fibril formation
- Thioflavin T fluorescence at 482 nm (amount of fibrils) (Aβ 1-40 [2]; Aβ 1-40 100 μM incubated with compound, pH 7.4, 37° C., 3 days): did not exhibit this typical fluorescence; also recorded: did not affect the ThT fluorescence spectra; also recorded: signal near background
- Thioflavin T signal after longer incubation (Aβ 1-40 [2]; longer incubation at 37° C., some long fibrils formed): did not exhibit any changes
- Thioflavin T signal with sodium metabisulphite added (Aβ 1-40 [2]; stock solutions containing 1% (v/v) sodium metabisulphite, 37° C., pH 7.4, 3 days): restoration of the ThT signal
- Amount of nonfibrillar assemblies (protofibrils) formed by Aβ alone relative to that obtained in the presence of compound (Aβ 1-40 [3]; 20 hour incubation): ~30%
- Average sedimentation coefficients of two populations of oligomeric species (Aβ 1-40 [3]; Aβ 100 μM): 35 S and 56 S
- Average sedimentation coefficients of two populations of oligomeric species (Aβ 1-40 [3]; Aβ 100 μM, listed as apomorhine): 35 S and 56 S
- Average sedimentation coefficient of Aβ-apomorphine complex(s) (Aβ 1-40 [3]; Aβ 100 μM, apomorphine 100 μM, 3 days, 30,000 rpm): 50 S
- Sedimentation of Aβ 1-40 at 3,000 rpm (fibrils) (Aβ 1-40 [3]; apomorphine at equimolar ratio to Aβ 1-40): no sedimentation of Aβ 1-40 was observed
- Increase in amount of soluble protofibrils (Aβ 1-40 [3]; incubation 17-24 h at 37° C., in the presence of apomorphine): 60%
- Sedimentation coefficient after addition of apomorphine (Aβ 1-40 [3]; incubation 17-24 h at 37° C., Aβ alone 20 S): 30 S
- Molecular weight from single species fit of sedimentation equilibrium (monomeric Aβ; remaining monomeric species, monitored at 330 nm): 4,430 g/mol
- Binding to monomeric Aβ (monomeric Aβ; sedimentation equilibrium at 330 nm): bound to monomeric Aβ
- Visible sedimentable aggregates (Aβ 1-40 [4]): did not show any visible sedimentable aggregates
- Congo red maximal absorbance and red-shifted maximum (Aβ 1-40 [5]): no increase in the maximal absorbance and red-shifted maximum

From patent US20080096909A1, “APOMORPHINE INHIBITORS OF AMYLOID-BETA (ABETA) FIBRIL FORMATION AND THEIR USE IN AMYLOIDOSIS BASED DISEASE” (priority 2001, published 2008)
